# According to US20240041830A1, “CIRCULATING BIOMARKERS OF RESPONSE TO PD-1/PD-L1 BLOCKADE AND GSK-3 INHIBITION” (Brown University, priority 2022, published 2024):
# How the values were obtained:
# [1] = system: panel of human colorectal cell lines; test: Luminex 200 analysis of tumor cell culture supernatants (Example 1); type: cell-based
# Procedure: (§1) Human cytokine profiling. Human cell line culture supernatants were analyzed using an R&D systems Human Premixed Multi-Analyte Kit (R&D Systems, Inc., Minneapolis, MN, USA) and a Luminex 200 (RRID: SCR_018025) Instrument (LX200-XPON-RUO, Luminex Corporation, Austin, TX, USA) according to the manufacturer's instructions. Sample levels of TNF-α, 4-1BB/TNFRSF9/CD137, IL-8/CXCL8, Ferritin, IFN-β, IL-10, CCL2/JE/MCP-1, VEGF, CXCL13/BLC/BCA-1, IFN-γ, CCL20/MIP-3 α, CCL3/MIP-1 α, CCL22/MDC, CCL4/MIP-1 β, Fas Ligand/TNFSF6, IL-17/1L-17A, IL-2, BAFF/BLyS/TNFSF13B, GM-CSF, CXCLS/ENA-78, TRANCE/TNFSF11/RANK L, CXCL9/MIG, G-CSF, IFN-γ R1/CD119, VEGFR3/Flt-4, C-Reactive Protein/CRP, CXCL11/I-TAC, IL-21, CXCL14/BRAK, IL-6, Fas/TNFRSF6/CD95, TRAIL R3/TNFRSF10C, IL-4, CCL5/RANTES, PD-L1/137-H1, CCL7/MCP-3/MARC, Chitinase 3-like 1, CXCL10/IP-10/CRG-2, IL-1 μ/IL-1F2, IL-7, Prolactin, CCL8/MCP-2, TRAIL R2/TNFRSF10B, M-CSF, IL-15, Granzyme B, IFN-α, TREM-1, IL-12/1L-23 p40, TRAIL/TNFSF10, CCL11/Eotaxin, and 1L-18/1L-1F4. Quantitative analysis with 6 standards and a minimum of 50 counts per bead region was used with the Luminex to generate analyte values reported as picograms/milliliter (pg/mL). Sample concentrations less than the lower limit of detection for each particular analyte were recoded as the lower limit value divided by 10. Sample concentrations above the upper limit of detection for a particular analyte were recoded as the upper limit of detection.
# A panel of human colorectal cell lines was chosen to provide a varied mutational background (TP53, KRAS, BRAF, TRK, APC, PIK3CA). Cells were treated with elraglusib at doses up to 50 μM for seventy-two hours to determine IC10, IC30, IC50, and IC70. Cytokine, chemokine, and growth factor levels were analyzed in the tumor cell culture supernatants after treatment at IC10, IC30, IC50, and IC70 for forty-eight hours using a Luminex 200 multiplexing instrument. Co-culture experiments were conducted with GFP+ SW480 colorectal cancer cells and either NK-92 natural killer cells or TALL-104 T cells at various effector/target ratios in a 48-well plate, in the presence or absence of elraglusib.
# [2] = system: NK-92; test: Luminex cytokine profiling of cell culture supernatant; type: cell-based, human
# Procedure: (§2) Collection of cell culture supernatants used in cytokine measurements. Cells were plated at 3.5×10^4 cells in a 48-well plate (Thermo Fisher Scientific, Waltham, MA, USA) in complete medium and incubated at 37° C. with 5% CO2. At twenty-four hours after plating, almost all the tumor cells were adherent to the bottom of the flask and the complete medium was replaced with the drug-containing medium. Subsequently, the culture supernatants were collected after forty-eight hours of incubation and were frozen at −80° C. until the measurement of cytokines was performed. On the day of analysis, samples were thawed and centrifuged to remove cellular debris.
# as §1
# (§3) Saos-2 osteosarcoma and 93T449 liposarcoma cell lines were pretreated at IC50 with elraglusib. The cells were harvested for Western blot analysis after 48 hours of treatment. Both cancer cell lines as well as TALL-104 T-cells and NK-92 NK cells were treated with 0.5 μM elraglusib for twenty-four hours and harvested for Luminex cytokine profiling.
# (§4) Because the previously observed non-canonical NF-κB pathway activation enhances the expression of immune cell chemotactic chemokines and cytokines, the inventors determine how elraglusib treatment impacts the immune cell secretome. TALL-104 and NK-92 cells were treated with 1 μM elraglusib for forty-eight hours before cell culture supernatant was collected for cytokine profile analysis.
# [3] = system: TALL-104; test: as above; type: cell-based, human
# Procedure: as §2, §1, §3, §4
compound,measurement,setting,value
Cn1cc(C2=C(c3coc4ccc(F)cc34)C(=O)NC2=O)c2cc3c(cc21)OCO3 [elraglusib],macrophage colony-stimulating factor (M-CSF),[1],decrease
same,VEGF in supernatant,"[1]; IC10, IC30, IC50, IC70 for forty-eight hours",decreased
same,Overall cytokine levels,[1]; in response to increasing doses,decreasing trend
same,CXCL14 (BRAK) in supernatant,[1]; with increasing doses,increase
same,IL-8 chemokine,"[2]; 0.5 μM, twenty-four hours",increase
same,soluble TRAIL (TRAIL/TNFSF10),"[2]; 0.5 μM, twenty-four hours",increase
same,IFN-γ concentration,"[2]; 1 μM, forty-eight hours",increases
same,TRAIL concentration,"[2]; 1 μM, forty-eight hours",increases
same,secreted granzyme B concentration,"[2]; 1 μM, forty-eight hours",decreases
same,IFN-γ in cell culture supernatants,"[2]; twenty-four hours, effect smaller than in TALL-104",significant increase
same,CXCL11,"[3]; 0.5 μM, twenty-four hours",increase
same,IL-18,"[3]; 0.5 μM, twenty-four hours",increased level
same,IFN-γ concentration,"[3]; 1 μM, forty-eight hours",increases
same,TRAIL concentration,"[3]; 1 μM, forty-eight hours",increases
same,granzyme B concentration,"[3]; 1 μM, forty-eight hours",increases
same,IFN-γ in cell culture supernatants,[3]; twenty-four hours,significant increase
